Experimental data: patent US20030186891A1, “Compositions and methods for treatment of vitamin D deficiency” (priority 2002, published 2003)

Experiments:
[1] = system: 24-hydroxylase mRNA; assay: 24-hydroxylase mRNA expression in CL-8 cells; assay type: cell-based; settings: 1α,25-dihydroxyvitamin D3 10^−9 M, 5 hours (FIG. 4)
Experimental: CL-8 cells were grown as above and the peptide of SEQ ID NO.1 was either not added to the cells, or added to the cells at a concentration of either 100 or 500 ng/ml. Cells were grown for a further 5 hours, and RNA was harvested using methods described above and expression levels of 24-hydroxylase were determined in each sample using methods described above. […]

[2] = system: 1α-hydroxylase mRNA; assay: 1α-hydroxylase mRNA expression in CL-8 cells (real-time quantitative PCR); assay type: cell-based, human
Experimental: Cell culture, RNA preparation and cDNA synthesis: CL-8 cells (1.6×10^6 cells) were placed in 60 mm culture dish, and cultured for 48 hours in 5% FCS D-MEM/HamF-12(1:1) medium. This medium was exchanged to FCS free, 0.5 mM Ca defined medium [D-MEM/HamF-12 (13:87), Insulin 5 μg/ml, Transferrin 5 μg/ml, Na2SeO3 5 ng/ml, T3 0.37 nM, EGF 2.5 ng/ml, Hydrocortisone 1 nM]. After 24 hours, the peptide of SEQ ID NO.1 (100 ng/ml or 500 ng/ml) or PTH 100 nM were added and cultured for 5 hours. After treatment, the total cellular contents of each well were used for RNA extraction and reverse transcription (RT). RNA was isolated using ISOGEN (Nippon Gene, Japan) according to the manufacturer's protocol. The purified RNA was redissolved in 10 μl RNase-free water and used for cDNA synthesis by RT. The RT was performed in a 20 μl reaction mixture containing 10 mM Tris buffer, pH8.3, 50 mM KCl, 5 mM MgCl2, 1 mM each of dATP, dGTP, dCTP and dTTP, 20 U of RNase inhibitor, 1 μM Reverse primer and 5 U of AMV reverse transcriptase. The reaction mixture was incubated at 30° C. for 10 min, 55° C. for 15 min, 95° C. for 5 min followed by 5° C. for 5 min.
Real-time quantitative PCR: mRNA was quantitated for human 1α-OHase gene and β-actin. Theses gene were amplified using primers of oligo synthesis DNA (Takara, Japan). […] Quantitation of mRNA was performed using Applied Biosystems GeneAmp 5700 sequence detection system with SYBR Green methods.
In order to study the effect of the peptide of SEQ ID No. 1 on the regulation of 1α-hydoxylase mRNA expression, CL-8 cells were grown with and without the peptide of SEQ ID No. 1 and the effects of the peptide on 1α-hydroxylase were quantified. […]
PTH and the peptide of SEQ ID NO.1 induce the expression of 1α-hydroxylase mRNA. […] Cells were grown for a further 5 hours, and RNA was harvested and expression levels of 1α-hydroxylase were determined in each sample using standard Northern blotting or RT-PCR procedures.

C=C1/C(=C\C=C2/CCC[C@]3(C)[C@@H]([C@H](C)CCCC(C)(C)O)CC[C@@H]23)C[C@@H](O)C[C@@H]1O [1α,25-dihydroxyvitamin D3]
levels of 24-hydroxylase mRNA [1]: significant increase

O=S(=O)(NCCNC/C=C/c1ccc(Br)cc1)c1cccc2cnccc12 [H-89]
effect of H-89 on the inducing effects of PTH on 1α-hydroxylase mRNA expression ([2]; H-89 10 uM with PTH 100 nmol, 5 hours (FIG. 2)): inhibited | effect of H-89 on the stimulatory effects of the peptide of SEQ ID NO.1 on 1α-hydroxylase mRNA expression ([2]; H-89 10 uM with peptide 100 or 500 ng/ml, 5 hours): did not inhibit

B1: parathyroid hormone (peptide, UniProt P01270 32-115, looked up)
Parathyroid hormone: SVSEIQLMHNLGKHLNSMERVEWLRKKLQDVHNFVALGAPLAPRDAGSQRPRKKEDNVLVESHEKSLGEADKADVNVLTKAKSQ
modifications: Parathyroid hormone
notes: parathyroid hormone, comparator inducer of 1α-hydroxylase mRNA acting via a PKA-dependent pathway
induction of the expression of 1α-hydroxylase mRNA [2]: induce
